We go through twelve compounds from patent US12662479B2 (Foghorn Therapeutics Inc., priority 2020, dated 2026).

For assay [1], the target named is T1, HiBit-BRG1 fusion protein (Homo sapiens, UniProt P51532).
T1 construct: expressed in transfected cells
Nature of the assay: HiBiT-BRG1 cell-based degradation assay (Nano-Glo HiBiT Lytic Detection, 24 h). The following applies: HeLa cells expressing HiBit-BRG1 and LgBit; for DC50: read-out: BRG1 HiBit Degradation IC50; for Dmax: HeLa, top dose 30 μM, read-out: BRG1 HiBit Degradation Maximum measured. An outline of the steps: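 Degradation is scaled from DMSO-treated cells (0%) to cells given 2 μM of a known BRM/BRG1 degrader (100%). HeLa cells stably carrying HiBiT-BRG1 plus LgBiT (5000/well) were lysed with Nano-Glo HiBiT detection reagent, shaken 10 min at RT, and luminescence read.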

In assay [2] the target is T2, HiBit-BRM fusion protein (Homo sapiens, UniProt P51531).
T2 construct: expressed in transfected cells
The experiment in a line: HiBiT-BRM cell-based degradation assay (Nano-Glo HiBiT Lytic Detection, 24 h). As to conditions: HeLa cells expressing HiBiT-BRM; for DC50: read-out: BRM HiBit Degradation IC50; for BRM HiBit Degradation Maximum measured: top dose 30 μM. The essentials: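 Stable HiBiT-BRM HeLa line; 24 h compound exposure, top final 30 μM, 3-fold, 10 pts in duplicate. Lytic HiBiT/LgBiT luminescence readout. % degradation vs DMSO (0%) and 2 μM known BRM/BRG1 degrader (100%).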

T2 sequence (P51531 whole entry, the tested form may be a part): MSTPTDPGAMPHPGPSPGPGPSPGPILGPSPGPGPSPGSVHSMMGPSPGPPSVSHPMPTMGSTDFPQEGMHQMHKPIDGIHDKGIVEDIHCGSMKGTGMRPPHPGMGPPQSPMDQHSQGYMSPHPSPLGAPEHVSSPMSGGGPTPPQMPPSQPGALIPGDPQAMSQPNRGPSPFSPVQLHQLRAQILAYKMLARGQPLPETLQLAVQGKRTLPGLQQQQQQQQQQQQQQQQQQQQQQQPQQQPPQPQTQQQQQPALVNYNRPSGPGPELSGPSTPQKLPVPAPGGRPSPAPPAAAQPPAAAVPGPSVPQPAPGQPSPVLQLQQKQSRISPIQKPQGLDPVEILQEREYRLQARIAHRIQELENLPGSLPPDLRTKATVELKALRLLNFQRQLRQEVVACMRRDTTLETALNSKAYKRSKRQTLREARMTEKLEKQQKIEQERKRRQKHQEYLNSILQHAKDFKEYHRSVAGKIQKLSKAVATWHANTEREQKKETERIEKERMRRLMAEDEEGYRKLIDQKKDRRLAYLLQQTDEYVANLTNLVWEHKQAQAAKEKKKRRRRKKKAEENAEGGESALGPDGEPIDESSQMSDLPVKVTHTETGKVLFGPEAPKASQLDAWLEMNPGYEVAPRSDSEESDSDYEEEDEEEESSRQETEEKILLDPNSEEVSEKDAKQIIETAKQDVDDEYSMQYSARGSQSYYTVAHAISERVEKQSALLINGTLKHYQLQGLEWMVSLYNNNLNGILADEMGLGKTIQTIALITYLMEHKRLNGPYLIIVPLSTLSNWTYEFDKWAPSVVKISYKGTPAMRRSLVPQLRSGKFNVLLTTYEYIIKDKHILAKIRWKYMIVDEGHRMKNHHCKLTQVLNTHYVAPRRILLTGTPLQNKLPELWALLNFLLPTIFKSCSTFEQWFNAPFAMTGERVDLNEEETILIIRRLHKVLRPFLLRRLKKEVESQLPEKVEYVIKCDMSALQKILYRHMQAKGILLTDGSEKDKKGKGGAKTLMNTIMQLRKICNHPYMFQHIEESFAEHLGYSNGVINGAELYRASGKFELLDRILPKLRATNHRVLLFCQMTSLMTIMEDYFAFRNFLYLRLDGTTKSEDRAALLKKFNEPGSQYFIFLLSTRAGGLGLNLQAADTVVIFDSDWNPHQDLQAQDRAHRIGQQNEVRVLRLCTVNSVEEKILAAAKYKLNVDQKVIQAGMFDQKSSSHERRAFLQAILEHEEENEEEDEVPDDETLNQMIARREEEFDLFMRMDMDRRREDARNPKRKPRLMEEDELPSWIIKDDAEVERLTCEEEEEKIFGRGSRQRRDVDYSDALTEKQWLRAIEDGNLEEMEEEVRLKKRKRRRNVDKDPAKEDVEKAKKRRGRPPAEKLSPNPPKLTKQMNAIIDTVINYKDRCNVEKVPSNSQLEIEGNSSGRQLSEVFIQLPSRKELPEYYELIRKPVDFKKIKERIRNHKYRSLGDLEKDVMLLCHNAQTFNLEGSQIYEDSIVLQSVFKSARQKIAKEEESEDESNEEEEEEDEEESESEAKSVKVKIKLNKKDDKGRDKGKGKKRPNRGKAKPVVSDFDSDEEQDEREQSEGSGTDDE
T1 sequence (P51532 whole entry, the tested form may be a part): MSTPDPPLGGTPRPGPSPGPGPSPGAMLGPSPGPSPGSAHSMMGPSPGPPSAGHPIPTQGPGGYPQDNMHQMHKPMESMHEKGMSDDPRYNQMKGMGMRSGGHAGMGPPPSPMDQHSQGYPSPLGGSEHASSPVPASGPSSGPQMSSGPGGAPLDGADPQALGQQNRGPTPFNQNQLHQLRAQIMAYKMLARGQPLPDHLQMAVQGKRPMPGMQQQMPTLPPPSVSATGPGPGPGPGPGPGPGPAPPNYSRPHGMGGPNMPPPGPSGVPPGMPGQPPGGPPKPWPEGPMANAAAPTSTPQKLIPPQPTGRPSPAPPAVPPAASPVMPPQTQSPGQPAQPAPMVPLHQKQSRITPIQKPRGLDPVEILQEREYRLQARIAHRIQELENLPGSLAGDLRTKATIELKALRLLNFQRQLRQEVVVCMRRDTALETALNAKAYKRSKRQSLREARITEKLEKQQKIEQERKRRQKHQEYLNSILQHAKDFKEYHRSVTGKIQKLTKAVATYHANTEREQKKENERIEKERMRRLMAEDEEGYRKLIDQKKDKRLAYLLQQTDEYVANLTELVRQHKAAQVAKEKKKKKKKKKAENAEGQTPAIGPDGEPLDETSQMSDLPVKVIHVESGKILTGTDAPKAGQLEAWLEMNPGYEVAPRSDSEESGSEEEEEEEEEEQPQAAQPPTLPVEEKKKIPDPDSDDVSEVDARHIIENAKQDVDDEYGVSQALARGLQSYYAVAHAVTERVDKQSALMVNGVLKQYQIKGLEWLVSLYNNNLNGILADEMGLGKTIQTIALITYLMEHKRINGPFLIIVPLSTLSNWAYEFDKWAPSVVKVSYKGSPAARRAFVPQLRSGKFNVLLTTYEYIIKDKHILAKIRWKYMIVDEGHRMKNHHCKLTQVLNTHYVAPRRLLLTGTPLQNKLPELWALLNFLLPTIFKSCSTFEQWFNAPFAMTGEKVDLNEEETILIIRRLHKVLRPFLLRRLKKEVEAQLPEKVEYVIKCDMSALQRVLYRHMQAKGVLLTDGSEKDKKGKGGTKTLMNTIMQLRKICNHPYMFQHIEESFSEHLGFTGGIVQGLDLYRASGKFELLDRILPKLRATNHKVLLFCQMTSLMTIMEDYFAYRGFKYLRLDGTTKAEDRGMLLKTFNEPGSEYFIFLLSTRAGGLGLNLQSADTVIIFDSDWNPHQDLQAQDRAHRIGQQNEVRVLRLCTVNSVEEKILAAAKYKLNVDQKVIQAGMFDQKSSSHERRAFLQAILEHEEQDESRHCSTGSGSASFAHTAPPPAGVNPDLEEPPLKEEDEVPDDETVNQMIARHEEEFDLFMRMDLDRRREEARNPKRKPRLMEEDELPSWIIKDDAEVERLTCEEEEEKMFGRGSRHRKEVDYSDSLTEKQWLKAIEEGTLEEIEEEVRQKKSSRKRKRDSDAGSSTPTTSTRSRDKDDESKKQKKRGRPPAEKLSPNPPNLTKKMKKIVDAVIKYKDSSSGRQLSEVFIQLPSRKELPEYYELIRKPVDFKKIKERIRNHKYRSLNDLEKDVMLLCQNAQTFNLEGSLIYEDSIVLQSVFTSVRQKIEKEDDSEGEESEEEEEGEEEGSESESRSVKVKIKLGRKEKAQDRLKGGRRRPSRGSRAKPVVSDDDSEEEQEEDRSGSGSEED

As for `CS(=O)(=O)n1ccc(C(=O)NCC(=O)Nc2nc(-c3cccc(-c4ccnc(C5(C(=O)NCCS(=O)(=O)CCNc6cccc7c6C(=O)N(C6CCC(=O)NC6=O)C7=O)CC5)c4)c3)cs2)c1` (stereo not drawn) [Compound 102, N-[2-[[4-[3-[2-[1-[2-[2-[[2-(2,6-dioxo-3-piperidyl)-1,3-dioxo-isoindolin-4-yl]amino]ethylsulfonyl]ethylcarbamoyl]-cyclopropyl]-4-pyridyl]phenyl]thiazol-2-yl]amino]-2-oxo-ethyl]-1-methylsulfonylpyrrole-3-carboxamide], in assay [1], the DC50 fell in the range of 100 to 1000 nM and the Dmax was in the range of 50 to 75%. In assay [2], the DC50 is > 10000 nM and the “BRM HiBit Degradation Maximum measured” value was “C (‘C’ = Maximum degradation <50%)”.
On to `CS(=O)(=O)n1ccc(C(=O)NCC(=O)Nc2nc(-c3cccc(-c4ccnc(C5(C(=O)NCCCCS(=O)(=O)CCCNc6cccc7c6C(=O)N(C6CCC(=O)NC6=O)C7=O)CC5)c4)c3)cs2)c1` (stereo not drawn) [Compound 103, N-(2-((4-(3-(2-(1-((4-((3-((2-(2,6-dioxopiperidin-3-yl)-1,3-dioxoisoindolin-4-yl)amino)propyl)sulfonyl)butyl)carbamoyl)-cyclopropyl)pyridin-4-yl)phenyl)thiazol-2-yl)amino)-2-oxoethyl)-1-(methylsulfonyl)-1H-pyrrole-3-carboxamide], for which, in assay [1], the DC50 is 100 to 1000 nM and the Dmax is > 75%. Besides, in assay [2], the DC50 was 100 to 1000 nM; the “BRM HiBit Degradation Maximum measured” value was “B (‘B’ = Maximum degradation ≥50% and ≤75%)”.
Consider `CS(=O)(=O)n1ccc(C(=O)NCC(=O)Nc2nc(-c3cccc(-c4ccnc(C5(C(=O)NCCCCCCNc6ccc7c(c6)C(=O)N(C6CCC(=O)NC6=O)C7=O)CC5)c4)c3)cs2)c1` (stereo not drawn) [Compound 104, N-[2-[[4-[3-[2-[1-[6-[[2-(2,6-dioxo-3-piperidyl)-1,3-dioxo-isoindolin-5-yl]amino]hexylcarbamoyl]cyclopropyl]-4-pyridyl]phenyl]thiazol-2-yl]amino]-2-oxo-ethyl]-1-methylsulfonyl-pyrrole-3-carboxamide], for which, in assay [1], the DC50 is < 100 nM and the Dmax is > 75%. In assay [2], the DC50 was < 100 nM and the “BRM HiBit Degradation Maximum measured” value is “A (‘A’ = Maximum degradation >75%)”.
For `CS(=O)(=O)n1ccc(C(=O)NCC(=O)Nc2nc(-c3cccc(-c4ccnc(C5(C(=O)NCCCCNc6ccc7c(c6)C(=O)N(C6CCC(=O)NC6=O)C7=O)CC5)c4)c3)cs2)c1` (stereo not drawn) [Compound 105, N-[2-[[4-[3-[2-[1-[4-[[2-(2,6-dioxo-3-piperidyl)-1,3-dioxo-isoindolin-5-yl]amino]butylcarbamoyl]cyclopropyl]-4-pyridyl]phenyl]thiazol-2-yl]amino]-2-oxo-ethyl]-1-methylsulfonyl-pyrrole-3-carboxamide], in assay [1], the DC50 is < 100 nM and the Dmax was > 75%. Further, in assay [2], the DC50 is < 100 nM and the “BRM HiBit Degradation Maximum measured” value is recorded as “A (‘A’ = Maximum degradation >75%)”.
On to `CN(CCCCNC(=O)C1(c2cc(-c3cccc(-c4csc(NC(=O)CNC(=O)c5ccn(S(C)(=O)=O)c5)n4)c3)ccn2)CC1)CCCNc1cccc2c1C(=O)N(C1CCC(=O)NC1=O)C2=O` (stereo not drawn) [Compound 106, N-(2-((4-(3-(2-(1-((4-((3-((2-(2,6-dioxopiperidin-3-yl)-1,3-dioxoisoindolin-4-yl)amino)propyl)(methyl)amino)butyl)-carbamoyl)cyclopropyl)pyridin-4-yl)phenyl)thiazol-2-yl)amino)-2-oxoethyl)-1-(methylsulfonyl)-1H-pyrrole-3-carboxamide], for which, in assay [1], the DC50 was > 10000 nM and the Dmax was < 50%. Moreover, in assay [2], the DC50 was > 10000 nM and the “BRM HiBit Degradation Maximum measured” value is recorded as “C (‘C’ = Maximum degradation <50%)”.
As to `CS(=O)(=O)n1ccc(C(=O)NCC(=O)Nc2nc(-c3cccc(-c4ccnc(C5(C(=O)N6CC(COc7ccc8c(c7)C(=O)N(C7CCC(=O)NC7=O)C8=O)C6)CC5)c4)c3)cs2)c1` (stereo not drawn) [Compound 107, N-(2-((4-(3-(2-(1-(3-(((2-(2,6-dioxopiperidin-3-yl)-1,3-dioxoisoindolin-5-yl)oxy)methyl)azetidine-1-carbonyl)cyclopropyl)pyridin-4-yl)phenyl)thiazol-2-yl)amino)-2-oxoethyl)-1-(methylsulfonyl)-1H-pyrrole-3-carboxamide], in assay [1], the DC50 was > 10000 nM and the Dmax was < 50%. Also, in assay [2], the DC50 was > 10000 nM and the “BRM HiBit Degradation Maximum measured” value is on record as “C (‘C’ = Maximum degradation <50%)”.
For `Cc1ncsc1-c1ccc(CNC(=O)[C@@H]2C[C@@H](O)CN2C(=O)[C@@H](NC(=O)COCCOCCNC(=O)C2(c3cc(-c4cccc(-c5csc(NC(=O)CNC(=O)c6ccn(S(C)(=O)=O)c6)n5)c4)ccn3)CC2)C(C)(C)C)cc1` [Compound 108, N-[2-[[4-[3-[2-[1-[2-[2-[2-[[(1S)-1-[(2S,4R)-4-hydroxy-2-[[4-(4-methylthiazol-5-yl)phenyl]methylcarbamoyl]pyrrolidine-1-carbonyl]-2,2-dimethyl-propyl]amino]-2-oxo-ethoxy]ethoxy]ethylcarbamoyl]cyclopropyl]-4-pyridyl]phenyl]thiazol-2-yl]amino]-2-oxo-ethyl]-1-methylsulfonyl-pyrrole-3-carboxamide], in assay [1], the DC50 fell in the range of 100 to 1000 nM and the Dmax is > 75%. In assay [2], the DC50 fell in the range of 100 to 1000 nM and the “BRM HiBit Degradation Maximum measured” value is “A (‘A’ = Maximum degradation >75%)”.
For the compound `CS(=O)(=O)n1ccc(C(=O)NCC(=O)Nc2nc(-c3cccc(-c4ccnc(C5(C(=O)N6CC(COc7cccc8c7C(=O)N(C7CCC(=O)NC7=O)C8=O)C6)CC5)c4)c3)cs2)c1` (stereo not drawn) [Compound 109, N-[4-[3-(2-[1-[3-([[2-(2,6-dioxopiperidin-3-yl)-1,3-dioxoisoindol-4-yl]oxy]methyl)azetidine-1-carbonyl]cyclopropyl]pyridin-4-yl)phenyl]-1,3-thiazol-2-yl]-2-[(1-methanesulfonylpyrrol-3-yl)formamido]acetamide], in assay [1], the DC50 is > 10000 nM and the Dmax was < 50%. Also, in assay [2], the DC50 is > 10000 nM and the “BRM HiBit Degradation Maximum measured” value is on record as “C (‘C’ = Maximum degradation <50%)”.
As to `Cc1ncsc1-c1ccc(CNC(=O)[C@@H]2C[C@@H](O)CN2C(=O)[C@@H](NC(=O)COCCOCCOCCNC(=O)C2(c3cc(-c4cccc(-c5csc(NC(=O)CNC(=O)c6ccn(S(C)(=O)=O)c6)n5)c4)ccn3)CC2)C(C)(C)C)cc1` [Compound 110, N-[2-[[4-[3-[2-[1-[2-[2-[2-[2-[[(1S)-1-[(2S,4R)-4-hydroxy-2-[[4-(4-methylthiazol-5-yl)phenyl]methylcarbamoyl]pyrrolidine-1-carbonyl]-2,2-dimethyl-propyl]amino]-2-oxo-ethoxy]ethoxy]ethoxy]ethylcarbamoyl]-cyclopropyl]-4-pyridyl]phenyl]thiazol-2-yl]amino]-2-oxo-ethyl]-1-methylsulfonyl-pyrrole-3-carboxamide], in assay [1], the DC50 is 100 to 1000 nM and the Dmax was > 75%. Further, in assay [2], the DC50 was in the range of 100 to 1000 nM; the “BRM HiBit Degradation Maximum measured” value was “B (‘B’ = Maximum degradation ≥50% and ≤75%)”.
Regarding `CN(CCNC(=O)COc1ccc2c(c1)C(=O)N(C1CCC(=O)NC1=O)C2=O)CCNC(=O)C1(c2cc(-c3cccc(-c4csc(NC(=O)CNC(=O)c5ccn(S(C)(=O)=O)c5)n4)c3)ccn2)CC1` (stereo not drawn) [Compound 111, N-[2-[[4-[3-[2-[1-[2-[2-[[2-[2-(2,6-dioxo-3-piperidyl)-1,3-dioxo-isoindolin-5-yl]oxyacetyl]amino]ethyl-methylamino]ethylcarbamoyl]cyclopropyl]-4-pyridyl]phenyl]thiazol-2-yl]amino]-2-oxo-ethyl]-1-methylsulfonyl-pyrrole-3-carboxamide], in assay [1], the DC50 was > 10000 nM and the Dmax is < 50%. In assay [2], the DC50 is > 10000 nM and the “BRM HiBit Degradation Maximum measured” value is “C (‘C’ = Maximum degradation <50%)”.
Take `CN(CCNC(=O)C1(c2cc(-c3cccc(-c4csc(NC(=O)CNC(=O)c5ccn(S(C)(=O)=O)c5)n4)c3)ccn2)CC1)CCOCCOc1cccc2c1C(=O)N(C1CCC(=O)NC1=O)C2=O` (stereo not drawn) [Compound 112, N-(2-((4-(3-(2-(1-((2-((2-(2-((2-(2,6-dioxopiperidin-3-yl)-1,3-dioxoisoindolin-4-yl)oxy)ethoxy)ethyl)(methyl)amino)-ethyl)carbamoyl)cyclopropyl)-pyridin-4-yl)phenyl)thiazol-2-yl)amino)-2-oxoethyl)-1-(methylsulfonyl)-1H-pyrrole-3-carboxamide]: in assay [1], the DC50 was > 10000 nM and the Dmax was < 50%. In assay [2], the DC50 was > 10000 nM and the “BRM HiBit Degradation Maximum measured” value is recorded as “C (‘C’ = Maximum degradation <50%)”.
As for `CS(=O)(=O)n1ccc(C(=O)NCC(=O)Nc2nc(-c3cccc(-c4ccnc(C5(C(=O)NC6CCN(CCOc7ccc8c(c7)C(=O)N(C7CCC(=O)NC7=O)C8=O)CC6)CC5)c4)c3)cs2)c1` (stereo not drawn) [Compound 113], in assay [1], the DC50 was < 100 nM and the Dmax was > 75%. Further, in assay [2], the DC50 was < 100 nM and the “BRM HiBit Degradation Maximum measured” value is on record as “A (‘A’ = Maximum degradation >75%)”.
